Reference: patent publication US4537717A
Values after ≈ are worked out from the molar mass of the structure shown. Values joined by “and” are separate entries in the source; they are usually repeats but may differ in a detail not shown here. Equal values may be shown once.

Experiments:
[1] = system: Staphylococcus aureus X1.1; format: cell-based; conditions: agar dilution; 2, 5, 17, 22 median of three tests; paired values two experiments
[2] = toxicity test (LD50); conditions: mouse, in vivo, iv, mice; administered intravenously
[3] = system: Staphylococcus aureus X400; format: cell-based; conditions: methicillin-resistant strain; agar dilution; 2, 5, 17, 22 median of three tests; paired values two experiments
[4] = system: Streptococcus pneumoniae Group D X66; format: cell-based; conditions: agar dilution; 2, 5, 17, 22 median of three tests; paired values two experiments
[5] = system: Staphylococcus epidermidis EPI1; format: cell-based; conditions: agar dilution; 2, 5, 17, 22 median of three tests; paired values two experiments
[6] = system: Streptococcus pyogenes; assay: in vivo activity against experimental bacterial infection (ED50); conditions: mice, dose protecting fifty percent of test animals; for ED50 Streptococcus pyogenes Oral: two doses orally; for ED50 Streptococcus pyogenes Subcutaneous: two doses subcutaneously
[7] = system: Staphylococcus aureus; assay: as above; conditions: mice; two doses subcutaneously; dose protecting fifty percent of test animals
[8] = system: Staphylococcus epidermidis EPI2; format: cell-based; conditions: agar dilution; 2, 5, 17, 22 median of three tests; paired values two experiments
[9] = system: Staphylococcus aureus V41; format: cell-based; conditions: penicillin-resistant strain; agar dilution; 2, 5, 17, 22 median of three tests; paired values two experiments
[10] = system: Streptococcus pyogenes C203; format: cell-based; conditions: agar dilution; 2, 5, 17, 22 median of three tests; paired values two experiments
[11] = system: Streptococcus pneumoniae Park I; format: cell-based; conditions: agar dilution; 2, 5, 17, 22 median of three tests; paired values two experiments
[12] = system: Streptococcus Group 9960; format: cell-based, Streptococcus pneumoniae; conditions: agar dilution; 2, 5, 17, 22 median of three tests; paired values two experiments
[13] = system: Micrococcus luteus ATCC 9341; assay: agar-plate disc-diffusion test; format: cell-based; conditions: suspended in water at 1 mg/ml; 7 mm disc; 24-48 hours at 25-37° C.
[14] = system: Bacillus subtilis ATCC 6633; assay: agar-plate disc-diffusion test; conditions: 7 mm disc, 24-48 hours at 25-37° C.; for Size of Zone of Inhibition (mm) B. subtilis ATCC 6633, grown on minimal nutrient agar: 1 mg/ml; for Size of Zone of Inhibition (mm) Bacillus subtilis ATCC 6633: suspended in water at 1 mg/ml
Method: ^a Compounds were suspended in water at a concentration of 1 mg/ml; a
7 mm disc was dipped into the suspension and then placed on the agar
surface; incubation: 24-48 hours at 25-37° C.
^b Grown on minimal nutrient agar

[15] = system: Staphylococcus aureus ATCC 6738P; assay: agar-plate disc-diffusion test; format: cell-based; conditions: suspended in water at 1 mg/ml; 7 mm disc; 24-48 hours at 25-37° C.

Compound	MIC Staphylococcus aureus X1.1 [1]	LD50 [2]	MIC Staphylococcus aureus X400 [3]	MIC Streptococcus pneumoniae Group D X66 [4]	MIC Staphylococcus epidermidis EPI1 [5]	ED50 Streptococcus pyogenes Oral [6]	ED50 Staphylococcus aureus Subcutaneous [7]	MIC Staphylococcus epidermidis EPI2 [8]	MIC Staphylococcus aureus V41 [9]	MIC Streptococcus pyogenes C203 [10]	MIC Streptococcus pneumoniae Park I [11]	MIC Streptococcus pneumoniae Group 9960 [12]	Size of Zone of Inhibition (mm) Micrococcus luteus ATCC 9341 [13]	Size of Zone of Inhibition (mm) B. subtilis ATCC 6633, grown on minimal nutrient agar [14]	Size of Zone of Inhibition (mm) Bacillus subtilis ATCC 6633 [14]	Size of Zone of Inhibition (mm) Staphylococcus aureus ATCC 6738P [15]	ED50 Streptococcus pyogenes Subcutaneous [6]
CCCCCCCCCCCCN[C@@H](Cc1c[nH]c2ccccc12)C(=O)N[C@@H](CC(N)=O)C(=O)N[C@@H](CC(=O)O)C(=O)N[C@@H]1C(=O)NCC(=O)N[C@@H](CCCN)C(=O)N[C@@H](CC(=O)O)C(=O)N[C@H](C)C(=O)N[C@@H](CC(=O)O)C(=O)NCC(=O)N[C@H](CO)C(=O)N[C@@H]([C@H](C)CC(=O)O)C(=O)N[C@@H](CC(=O)c2ccccc2N)C(=O)O[C@@H]1C [Compound 22, NTrp -(n-dodecyl)-A-21978C nucleus]	0.5 µg/mL (≈ 0.306 µM)	> 300 mg/kg	1 µg/mL (≈ 0.612 µM)	4 µg/mL (≈ 2.45 µM)	1 µg/mL (≈ 0.612 µM)	> 200 mg/kg × 2	1.25 mg/kg × 2	1 µg/mL (≈ 0.612 µM)	1 µg/mL (≈ 0.612 µM)	0.5 µg/mL (≈ 0.306 µM)	1 µg/mL (≈ 0.612 µM)	1 µg/mL (≈ 0.612 µM)					
NTrp -(n-dodecyl)-NOrn -(n-dodecyl)-A-21978C nucleus [Compound 23]	8 µg/mL		16 µg/mL	32 µg/mL	8 µg/mL			8 µg/mL	8 µg/mL	4 µg/mL	8 µg/mL	8 µg/mL					
CCCCCCCCCC(=O)N[C@@H](Cc1c[nH]c2ccccc12)C(=O)N[C@H](CC(N)=O)C(=O)N[C@@H](CC(=O)O)C(=O)N[C@@H]1C(=O)NCC(=O)N[C@@H](CCCN)C(=O)N[C@@H](CC(=O)O)C(=O)N[C@H](C)C(=O)N[C@@H](CC(=O)O)C(=O)NCC(=O)N[C@H](CO)C(=O)N[C@@H]([C@H](C)CC(=O)O)C(=O)N[C@@H](CC(=O)c2ccccc2N)C(=O)O[C@@H]1C [Compound 4]		> 300 mg/kg															
NTrp -(n-Decanoyl)-NKyn -(n-decanoyl)-A-21978C [Compound 21]	1 µg/mL		32 µg/mL	> 128 µg/mL	2 µg/mL			2 µg/mL	4 µg/mL	0.125 µg/mL	0.5 µg/mL	128 µg/mL					
CCC(C)CCCCCCC(=O)N[C@@H](Cc1c[nH]c2ccccc12)C(=O)N[C@@H](CC(N)=O)C(=O)N[C@@H](CC(=O)O)C(=O)N[C@@H]1C(=O)NCC(=O)N[C@@H](CCCNC(C)=O)C(=O)N[C@@H](CC(=O)O)C(=O)N[C@H](C)C(=O)N[C@@H](CC(=O)O)C(=O)NCC(=O)N[C@H](CO)C(=O)N[C@@H]([C@H](C)CC(=O)O)C(=O)N[C@@H](CC(=O)c2ccccc2N)C(=O)O[C@@H]1C (some centres unmarked) [Compound 14]		> 600 mg/kg				163 mg/kg × 2 and > 200 mg/kg × 2	1.3 mg/kg × 2						20 mm	25 mm	18 mm	21 mm	
CCCCCCCC(=O)N[C@@H](Cc1c[nH]c2ccccc12)C(=O)N[C@@H](CC(N)=O)C(=O)N[C@@H](CC(=O)O)C(=O)N[C@@H]1C(=O)NCC(=O)N[C@@H](CCCN)C(=O)N[C@@H](CC(=O)O)C(=O)N[C@H](C)C(=O)N[C@@H](CC(=O)O)C(=O)NCC(=O)N[C@H](CO)C(=O)N[C@@H]([C@H](C)CC(=O)O)C(=O)N[C@@H](CC(=O)c2ccccc2N)C(=O)O[C@@H]1C [Compound 2]	4 µg/mL (≈ 2.51 µM)	> 600 mg/kg	8 µg/mL (≈ 5.02 µM)	64 µg/mL (≈ 40.2 µM)	8 µg/mL (≈ 5.02 µM)	> 200 mg/kg × 2		4 µg/mL (≈ 2.51 µM)	4 µg/mL (≈ 2.51 µM)	1 µg/mL (≈ 0.628 µM)	8 µg/mL (≈ 5.02 µM)	16 µg/mL (≈ 10 µM)	23 mm	20 mm	18 mm	23 mm	
CCC(C)CCCCCCC(=O)N[C@@H](Cc1c[nH]c2ccccc12)C(=O)N[C@@H](CC(N)=O)C(=O)N[C@@H](CC(=O)O)C(=O)N[C@@H]1C(=O)NCC(=O)N[C@@H](CCCNC(=O)CCC(=O)O)C(=O)N[C@@H](CC(=O)O)C(=O)N[C@H](C)C(=O)N[C@@H](CC(=O)O)C(=O)NCC(=O)N[C@H](CO)C(=O)N[C@@H]([C@H](C)CC(=O)O)C(=O)N[C@@H](CC(=O)c2ccccc2N)C(=O)O[C@@H]1C (some centres unmarked) [Compound 15]		450 mg/kg				> 200 mg/kg × 2	6.27 mg/kg × 2						19 mm	25 mm	18 mm	21 mm	1.4 mg/kg × 2
CCCCCCCC(=O)NCCC[C@@H]1NC(=O)CNC(=O)[C@@H](NC(=O)[C@H](CC(=O)O)NC(=O)[C@H](CC(N)=O)NC(=O)[C@H](Cc2c[nH]c3ccccc23)NC(=O)CCCCCCC)[C@@H](C)OC(=O)[C@H](CC(=O)c2ccccc2N)NC(=O)[C@H]([C@H](C)CC(=O)O)NC(=O)[C@@H](CO)NC(=O)CNC(=O)[C@H](CC(=O)O)NC(=O)[C@@H](C)NC(=O)[C@H](CC(=O)O)NC1=O [Compound 16]	8 µg/mL (≈ 4.65 µM)	> 600 mg/kg	8 µg/mL (≈ 4.65 µM)	> 128 µg/mL	16 µg/mL (≈ 9.31 µM)			16 µg/mL (≈ 9.31 µM)	16 µg/mL (≈ 9.31 µM)	4 µg/mL (≈ 2.33 µM)	4 µg/mL (≈ 2.33 µM)	64 µg/mL (≈ 37.2 µM)	10 mm	17 mm	tr	11 mm	
CCCCCCCCCCCCCC(=O)N[C@@H](Cc1c[nH]c2ccccc12)C(=O)N[C@@H](CC(N)=O)C(=O)N[C@@H](CC(=O)O)C(=O)N[C@@H]1C(=O)NCC(=O)N[C@@H](CCCN)C(=O)N[C@@H](CC(=O)O)C(=O)N[C@H](C)C(=O)N[C@@H](CC(=O)O)C(=O)NCC(=O)N[C@H](CO)C(=O)N[C@@H]([C@H](C)CC(=O)O)C(=O)N[C@@H](CC(=O)c2ccccc2N)C(=O)O[C@@H]1C [Compound 8]		62.5 mg/kg	2 µg/mL (≈ 1.19 µM)		1 µg/mL (≈ 0.596 µM)	< 50 mg/kg × 2		2 µg/mL (≈ 1.19 µM)					21 mm	28 mm	21 mm	22 mm	
CCCCCCCCCCCC(=O)N[C@@H](Cc1c[nH]c2ccccc12)C(=O)N[C@@H](CC(N)=O)C(=O)N[C@@H](CC(=O)O)C(=O)N[C@@H]1C(=O)NCC(=O)N[C@@H](CCCN)C(=O)N[C@@H](CC(=O)O)C(=O)N[C@H](C)C(=O)N[C@@H](CC(=O)O)C(=O)NCC(=O)N[C@H](CO)C(=O)N[C@@H]([C@H](C)CC(=O)O)C(=O)N[C@@H](CC(=O)c2ccccc2N)C(=O)O[C@@H]1C [Compound 6]		144 mg/kg		2 µg/mL (≈ 1.21 µM)	1 µg/mL (≈ 0.607 µM)	69 mg/kg × 2	0.44 mg/kg × 2	1 µg/mL (≈ 0.607 µM)		0.125 µg/mL and 0.25 µg/mL	0.25 µg/mL (≈ 0.152 µM)	0.5 µg/mL (≈ 0.303 µM)	19 mm	32 mm	20 mm	25 mm	0.05 mg/kg × 2
